Experimental data as given in ChEMBL document CHEMBL1201862, “PubChem BioAssay data set” (2004).
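Step 1: Grow cells in 96-well plates. Step 2: Expose to compound for 48 hours at 5 concentrations. Step 3: Interpolate endpoints linearly; if unreached, use highest concentration. At the GI50, growth is halved.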 The source made the active and inactive calls. Cut-off read from the data, not from the text of the source: active = GI50 up to about 1.1 µM and inactive = higher.

Tests used:
Assay in all cases: NCI anticancer screen, dose series, 48 h
OVCAR-4 = test system: OVCAR-4
SNB-75 = test system: SNB-75
CCRF-CEM = test system: CCRF-CEM
HL-60 = test system: HL-60
K562 = test system: K562
TK-10 = test system: TK-10
OVCAR-8 = test system: OVCAR-8
M19-MEL = test system: M19-MEL
U-251 = test system: U-251
UO-31 = test system: UO-31
SK-MEL-2 = test system: SK-MEL-2
NCI-H226 = test system: NCI-H226
Malme-3M = test system: Malme-3M
COLO 205 = test system: COLO 205
RPMI-8226 = test system: RPMI-8226
NCI-H460 = test system: NCI-H460
NCI-H23 = test system: NCI-H23
UACC-257 = test system: UACC-257
SF-539 = test system: SF-539
A498 = test system: A498
DMS-273 = test system: DMS-273
M14 = test system: M14
SW-620 = test system: SW-620
CAKI-1 = test system: CAKI-1
EKVX = test system: EKVX
KM-20L2 = test system: KM-20L2
SF-295 = test system: SF-295
786-0 = test system: 786-0
HT-29 = test system: HT-29
MOLT-4 = test system: MOLT-4
ACHN = test system: ACHN
SNB-78 = test system: SNB-78
NCI-H522 = test system: NCI-H522
HOP-18 = test system: HOP-18
SN12C = test system: SN12C
HCT-116 = test system: HCT-116
HCC 2998 = test system: HCC 2998
HOP-62 = test system: HOP-62
OVCAR-3 = test system: OVCAR-3
DLD-1 = test system: DLD-1
KM12 = test system: KM12
SK-OV-3 = test system: SK-OV-3
UACC-62 = test system: UACC-62
OVCAR-5 = test system: OVCAR-5
IGROV-1 = test system: IGROV-1
A549 = test system: A549
SK-MEL-5 = test system: SK-MEL-5
SNB-19 = test system: SNB-19
HCT-15 = test system: HCT-15
LXFL 529 = test system: LXFL 529
SR = test system: SR

C/C(CN1C(=O)c2ccccc2C1=O)=N\NS(=O)(=O)c1ccc(C)cc1
GI50 (OVCAR-4): > 100 µM (inactive) | GI50 (SNB-75): > 100 µM (inactive) | GI50 (CCRF-CEM): > 100 µM (inactive) | GI50 (HL-60): > 100 µM (inactive) | GI50 (K562): > 100 µM (inactive) | GI50 (TK-10): > 100 µM (inactive) | GI50 (OVCAR-8): > 100 µM (inactive) | GI50 (M19-MEL): > 100 µM (inactive) | GI50 (U-251): > 100 µM (inactive) | GI50 (UO-31): > 100 µM (inactive) | GI50 (SK-MEL-2): > 100 µM (inactive) | GI50 (NCI-H226): > 100 µM (inactive) | GI50 (Malme-3M): > 100 µM (inactive) | GI50 (COLO 205): > 100 µM (inactive) | GI50 (RPMI-8226): > 100 µM (inactive) | GI50 (NCI-H460): > 100 µM (inactive) | GI50 (NCI-H23): > 100 µM (inactive) | GI50 (UACC-257): > 100 µM (inactive) | GI50 (SF-539): > 100 µM (inactive) | GI50 (A498): > 100 µM (inactive) | GI50 (DMS-273): > 100 µM (inactive) | GI50 (M14): > 100 µM (inactive) | GI50 (SW-620): > 100 µM (inactive) | GI50 (CAKI-1): > 100 µM (inactive) | GI50 (EKVX): > 100 µM (inactive) | GI50 (KM-20L2): > 100 µM (inactive) | GI50 (SF-295): > 100 µM (inactive) | GI50 (786-0): > 100 µM (inactive) | GI50 (HT-29): > 100 µM (inactive) | GI50 (MOLT-4): > 100 µM (inactive) | GI50 (ACHN): > 100 µM (inactive) | GI50 (SNB-78): > 100 µM (inactive) | GI50 (NCI-H522): > 100 µM (inactive) | GI50 (HOP-18): > 100 µM (inactive) | GI50 (SN12C): > 100 µM (inactive) | GI50 (HCT-116): > 100 µM (inactive) | GI50 (HCC 2998): > 100 µM (inactive) | GI50 (HOP-62): > 100 µM (inactive) | GI50 (OVCAR-3): > 100 µM (inactive) | GI50 (DLD-1): > 100 µM (inactive) | GI50 (KM12): > 100 µM (inactive) | GI50 (SK-OV-3): > 100 µM (inactive) | GI50 (UACC-62): > 100 µM (inactive) | GI50 (OVCAR-5): > 100 µM (inactive) | GI50 (IGROV-1): > 100 µM (inactive) | GI50 (A549): > 100 µM (inactive) | GI50 (SK-MEL-5): > 100 µM (inactive) | GI50 (SNB-19): > 100 µM (inactive) | GI50 (HCT-15): > 100 µM | GI50 (LXFL 529): > 100 µM (inactive) | GI50 (SR): > 100 µM (inactive)
